Test systems include 786-0 renal; CCRF-CEM leukemia; K-562 leukemia; MDA-MB-435; OVCAR-3 ovarian; SF-539 CNS; SW-620 colon; TK-10 renal; U251 CNS; UO-31 renal.
What all share (test): DTP human tumour cell line panel, 48 h

From PubChem BioAssay (NCI) come the findings set out here.

Structures are written as SMILES.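 Grown in 96-well plates, cells were treated for 48 hours with each compound at five concentrations. Insufficient inhibition: endpoint recorded as highest concentration tested. TGI denotes the concentration required for complete inhibition of growth.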

As to `CC[C@@H](/C=C\CCC1(C[C@@H](N)CCC=C(C)C)OCCO1)O[Si](C(C)C)(C(C)C)C(C)C`, the TGI – broadly, the concentration giving total growth inhibition – was 31.8 µM in the experiment on 786-0 renal; 58.7 µM with CCRF-CEM leukemia; 31.1 µM in the experiment with K-562 leukemia; 34.9 µM in the experiment with MDA-MB-435; 38.8 µM with OVCAR-3 ovarian; 34.1 µM with SF-539 CNS. Moreover, the TGI in the experiment with SW-620 colon is 51.6 µM; in the experiment with TK-10 renal, 31.2 µM; with U251 CNS it was 35.1 µM; in the experiment on UO-31 renal, 32.3 µM.
Turning to `CCC1=NC(C(F)(F)F)(C(F)(F)F)N=C(/N=C(/N)N(C)C(C(C)C)P(=O)(OC(C)C)OC(C)C)O1` (stereo not given), the TGI in the experiment with 786-0 renal, in the experiment with CCRF-CEM leukemia, in the experiment with K-562 leukemia, in the experiment on MDA-MB-435, in the experiment on OVCAR-3 ovarian and with SF-539 CNS was greater than 100 µM in each case. Further, the total growth inhibition concentration (TGI) in the experiment with SW-620 colon, in the experiment on TK-10 renal, with U251 CNS and with UO-31 renal was greater than 100 µM in each case.
Regarding `C[C@]12CC/C(=N\OCCN3CCCCC3)C=C1CCC1C2CC[C@@]2(C)C1CC[C@]2(C)O` (stereo not given in full), the TGI was 17.3 µM with 786-0 renal; 11.3 µM in the experiment on CCRF-CEM leukemia; 17.9 µM with K-562 leukemia; 6.71 µM in the experiment with MDA-MB-435; 42.8 µM in the experiment with OVCAR-3 ovarian; 22.5 µM in the experiment on SF-539 CNS. For the same compound, the TGI came to 62.8 µM in the experiment with SW-620 colon, 34 µM in the experiment on TK-10 renal, 26.6 µM in the experiment on U251 CNS and 23.2 µM in the experiment on UO-31 renal.
For `Cc1cc(C)n(CN(Cn2nc(C)cc2C)c2ccccc2)n1`, the total growth inhibition concentration (TGI) with 786-0 renal was 48.5 µM; with CCRF-CEM leukemia, 83.9 µM; in the experiment with K-562 leukemia it was 46.1 µM; with MDA-MB-435, 29.1 µM; in the experiment on OVCAR-3 ovarian, 66.6 µM; in the experiment with SF-539 CNS, 38.3 µM. The TGI was 69.8 µM in the experiment on SW-620 colon, greater than 100 µM with TK-10 renal, 44 µM in the experiment with U251 CNS and 78.5 µM in the experiment with UO-31 renal.
On to `CC(NC(NC(C)C12CC3CC(CC(C3)C1)C2)=C(C(Cl)=C(Cl)Cl)[N+](=O)[O-])C12CC3CC(CC(C3)C1)C2` (stereo not given), for which the TGI in the experiment with 786-0 renal was greater than 100 µM; in the experiment with CCRF-CEM leukemia, 4.64 µM; in the experiment on K-562 leukemia, greater than 40 µM; in the experiment on MDA-MB-435 it was greater than 100 µM; in the experiment on OVCAR-3 ovarian it was 64.8 µM; with SF-539 CNS it was 69 µM. Moreover, the TGI in the experiment on SW-620 colon was 62.1 µM; in the experiment with TK-10 renal, greater than 100 µM; with U251 CNS, 12.6 µM; with UO-31 renal, greater than 100 µM.
Consider `COC(=O)c1c2c(cc3c1CC1(Cc4cc5c(cc4C1)CCC5)C3)CCC2`, for which the TGI in the experiment with 786-0 renal, with CCRF-CEM leukemia, with K-562 leukemia, in the experiment with MDA-MB-435, in the experiment with OVCAR-3 ovarian and in the experiment with SF-539 CNS was greater than 100 µM throughout. In addition, the TGI with SW-620 colon, in the experiment with TK-10 renal, in the experiment with U251 CNS and in the experiment on UO-31 renal was greater than 100 µM in each case.
On to `COc1ccc2c(CCNS(=O)(=O)c3ccccc3)c(C(C)=O)[nH]c2c1`, for which the total growth inhibition concentration (TGI) with 786-0 renal was greater than 100 µM; in the experiment with CCRF-CEM leukemia it was greater than 100 µM; in the experiment with K-562 leukemia, greater than 100 µM; in the experiment on MDA-MB-435, greater than 75.6 µM; in the experiment on OVCAR-3 ovarian, greater than 100 µM; in the experiment on SF-539 CNS, greater than 100 µM. Further, the total growth inhibition concentration (TGI) with SW-620 colon, with TK-10 renal, in the experiment with U251 CNS and with UO-31 renal was greater than 100 µM throughout.
For `N#CCCN(CCC#N)c1ccc(C(N=Nc2ccc(Cl)cc2)=Nc2ccc(F)cc2)cc1`, the concentration for total growth inhibition (TGI) with 786-0 renal, in the experiment with CCRF-CEM leukemia, with K-562 leukemia, in the experiment with MDA-MB-435, in the experiment with OVCAR-3 ovarian and in the experiment on SF-539 CNS was greater than 100 µM in each case. The concentration for total growth inhibition (TGI) in the experiment on SW-620 colon, with TK-10 renal, with U251 CNS and with UO-31 renal was greater than 100 µM in each case.
Consider `COc1ccc(/C=C2/CCS(=O)(=O)c3ccc(C)cc3C2=O)cc1OC`, for which the concentration for total growth inhibition (TGI) in the experiment on 786-0 renal was 27.7 µM; with CCRF-CEM leukemia, 69.8 µM; with K-562 leukemia, greater than 100 µM; in the experiment with MDA-MB-435, 71.6 µM; with OVCAR-3 ovarian it was greater than 100 µM; in the experiment with SF-539 CNS, greater than 100 µM. For the same compound, the TGI is greater than 100 µM with SW-620 colon, 37.5 µM with TK-10 renal, 42 µM in the experiment with U251 CNS and 20.1 µM in the experiment on UO-31 renal.
As for `CCN(CC)CCNc1ccc(C)c2sc3ccccc3c(=O)c12`, the concentration for total growth inhibition (TGI) in the experiment with 786-0 renal stood at 9.32 µM; in the experiment on CCRF-CEM leukemia, 8.04 µM; in the experiment on K-562 leukemia, 6.08 µM; in the experiment on MDA-MB-435 it was 4.49 µM; in the experiment with OVCAR-3 ovarian, 16.8 µM; in the experiment on SF-539 CNS it was 8.04 µM. In addition, the TGI with SW-620 colon amounted to 4.35 µM; with TK-10 renal, 11 µM; in the experiment with U251 CNS, 5.65 µM; with UO-31 renal it was 3 µM.
`Cc1cc(C)n(C(=O)CSc2nnc(SCC(=O)n3nc(C)cc3C)s2)n1`: the TGI with 786-0 renal, with CCRF-CEM leukemia, with K-562 leukemia, with MDA-MB-435, with OVCAR-3 ovarian and in the experiment with SF-539 CNS was greater than 100 µM in each case. The TGI with SW-620 colon, in the experiment on TK-10 renal, in the experiment on U251 CNS and in the experiment with UO-31 renal was greater than 100 µM in each case.
